From patent US20220370326A1, “TOPICAL COMPOSITIONS AND METHODS OF USING SAME AGAINST MITOCHONDRIAL FRAGMENTATION” (Conopco, Inc., d/b/a UNILEVER, priority 2019, published 2022)
Marks after values point to notes of the source that are not given here.

Tested on: human keratinocytes
Assay: Mitochondrial fragmentation in keratinocytes - UV study (TPEF imaging of NADH, Fourier PSD analysis)
Type: cell-based
Settings: B3 10 mM, SAMe 500 uM; for Effect on mitochondrial fragmentation in Non UV-exposed keratinocytes (in words) / Effect on UV-induced mitochondrial fragmentation (in words): significance P </= 0.05; for Mitochondrial Fragmentation, (+) UV (4 days) / Mitochondrial Fragmentation, (−) UV (3 days): human keratinocytes, higher value = less protection; for Mitochondrial Fragmentation, (+) UV (4 days): 4 days of daily UV exposure (4 J/cm^2 UVA+UVB, 14 min); for Mitochondrial Fragmentation, (−) UV (3 days): not UV-exposed, 3 days of treatment; for Effect on UV-induced mitochondrial fragmentation (in words): keratinocytes, UV exposure for 4 days
Description: Test compounds (B3 and SAMe) were purchased from Sigma (St. Loius, MO). Cell culture growth media (Epilife media with calcium (Cat#MEPI500CA) and Epilife media supplement HKGS 100X (Cat#S-001-5)) was purchased from Thermofisher (Waltham, Mass.). Cryopreserved human keratinocytes cells (˜1×10^6 cells) were plated on 12-well glass bottom plates at a confluence of ˜15%. The cells were suspended in primary keratinocyte growth media (Epilife media with calcium) and incubated @ 37° C. for 1d (Day 0). At Day 1, cells began treatment with supplemented primary keratinocyte growth media (Epilife media with calcium supplemented with HKGS 100X; […]) without test compound (Control sample) or containing test compounds B3 (10 mM), SAMe (500 μM) or B3 (10 mM)+SAMe (500 uM). Cell treatment (25m1 media with or without test compounds as above) continued daily for 2 additional days (Days 2 and 3). On Day 4, cells were subjected to UV treatment by replacing media with PBS, exposing cells to UV light (4 J/cm^2 of UVA+UVB) for 14 min and feeding cells with media with or without corresponding test compounds as defined above. UV treatments continued daily for 3 additional days (Days 5, 6 and 7). Image acquisition and analysis on all wells to assess mitochondrial fragmentation was conducted on Day 1, 3, 5 and 8.
For two-photon excited fluorescence (TPEF) imaging, cell cultures were placed in microscope-compatible micro-incubator system, which maintained 37° C. within a humidified environment throughout the imaging session. HEPES buffering agent (Sigma) was added to cell cultures before imaging, which maintained the pH of cell cultures throughout the imaging session. Images were obtained using a Leica TCS SP8 confocal microscope equipped with a tunable (680-1300 nm) titanium-sapphire laser (InSight Deep See; Spectra Physics; Mountain View, Calif.). Images (1024×1024 pixels; 386×386 μm) were acquired using water-immersion 25x objective (NA 0.95; 2.4 mm working distance), with simultaneous collection by two non-descanned photomultiplier tube (PMT) detectors using a filter cube containing filters from Chroma (Bellows Falls, VT), including a 700 nm short pass filter (ET700SP-2P) and a 495 nm dichroic mirror (495DCXR). To isolate NADH fluorescence, a 460(±20) nm emission filter (Chroma, ET460/40M-2P), corresponding to the NADH emission peak, was placed before one of the non-descanned detectors. NADH fluorescence images were acquired from this 460 nm channel using 755 nm excitation. FAD fluorescence was isolated using a 525(±25) nm emission filter (Chroma, ET525/50M-2P) for the other non-descanned detector and 860 nm excitation. The two-photon action cross section of NADH decreases by several orders of magnitude between 755 nm and 860 nm excitation, enabling an efficient isolation of FAD at longer wavelengths. The fluorescence lifetime images (512×512 pixels; 386×386 μm) corresponding to NADH were acquired under the same excitation and emission settings, using SymPho software. PMT gain was adjusted for each image to maximize contrast while preventing a saturated pixel intensity value. The PMT gain and laser power were recorded for each image and used to normalize fluorescence intensity.
To assess mitochondrial fragmentation, a previously-established Fourier transform technique was used to obtain power spectral density (PSD) curves from each image. […]

| SMILES | Effect on mitochondrial fragmentation in Non UV-exposed keratinocytes (in words) | Mitochondrial Fragmentation, (+) UV (4 days) | Mitochondrial Fragmentation, (−) UV (3 days) | Effect on UV-induced mitochondrial fragmentation (in words) |
| --- | --- | --- | --- | --- |
| NC(=O)c1cccnc1 [B3, Nicotinamide] | does not significantly reduce mitochondrial fragmentation | 1.34 ^d | 1.18 | effective at reducing this UV-induced effect down to control levels |
| C[S+](CC[C@H](N)C(=O)[O-])C[C@H]1O[C@@H](n2cnc3c(N)ncnc32)[C@H](O)[C@@H]1O (stereo partly drawn) [SAMe, S-adenosyl-L-methionine] | does not significantly reduce mitochondrial fragmentation | 1.58 ^c,e | 1.30 | increases mitochondrial fragmentation beyond UV-exposed levels |
